Results taken from the METLIN SMRT retention time set (Domingo-Almenara et al. 2019).

Experiment: gradient 5% acetonitrile 3 min, to 50% in 2 min, to 85% in 15 min, held 3 min, 100 µL/min
Settings: column: Zorbax Extend-C18 2.1 x 50 mm; eluents: water / acetonitrile, 0.1% formic acid
Procedure, shortened: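 Pure standards were analyzed in mixtures of ~100 molecules using HPLC coupled to a quadrupole time-of-flight mass spectrometer, in both positive and negative ionization mode. Separation used a Zorbax Extend-C18 column (2.1 × 50 mm, 1.8 μm) at 100 μL/min, with water and acetonitrile each containing 0.1% formic acid. Dead and dwell volumes were 40 μL and 900 μL, and data were collected over 3 months. Retention time was read from computationally picked adduct peaks, each inspected manually.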

Compound | RP-LC retention time
O=C(CCNc1c(-c2cccc(F)c2)nc2cnccn12)NCc1ccc2c(c1)OCO2 | 712 s
CCCc1noc(-c2ccnc(-n3cnc(C(=O)NC4CCCCCC4)c3)c2)n1 | 1060 s
COc1ccc(CN2C(=O)COC[C@H]2C(=O)NCC2CC2)c(OC)c1 | 696 s
CCOc1ccccc1CN1CC(CO)C2(CCNCC2)C1 (configuration not stated) | 520 s
O=C(Cn1c(Cc2ccc(Cl)cc2)nc2ccccc21)N1CCCCCC1 | 739 s
COCCn1c(SCc2nc(-c3ccccc3C)no2)nc2cc3c(cc2c1=O)OCO3 | 1120 s
COc1ccc(-c2ccc(=O)n(Cc3nc(-c4ccc(Cl)cc4)no3)n2)cc1 | 1070 s
CCCOc1nc2ccccc2nc1N1CCCC(C(=O)Nc2cccc(C)c2C)C1 (configuration not stated) | 1390 s
COc1cccc(-c2nc(COc3cc(C)c4c(C)nn(C)c4n3)c(C)o2)c1OC | 1070 s
COc1cc(CN2CC(Oc3ccc(-c4noc(-c5ccncc5)n4)cc3)C2)cc(OC)c1 | 728 s
CCOc1ccc(NC(=O)C2(CC)CCCCC(=O)N2)cc1 (configuration not stated) | 720 s
COc1ccccc1-c1noc(-c2nnn3c2COC(c2ccc(Cl)cc2)C3)n1 (configuration not stated) | 1220 s
CCOc1cccc(-c2noc(Cn3nc(-c4ccc5c(c4)OCO5)ccc3=O)n2)c1 | 1130 s
O=C(c1ccc(-c2ccsc2)nc1)N1CCCC1 | 716 s
CC(O)c1nc2ccccc2n1CC(=O)N(c1ccccc1)C(C)C (configuration not stated) | 647 s
CN(C)c1ccc(C(=O)NC2CCN(c3cc(-c4ccc(Cl)cc4)[nH]n3)C2)cc1 (configuration not stated) | 790 s
CCCN1CCN(CCCNC(=O)c2c(-c3ccc(Br)s3)noc2C)CC1 | 609 s
CC(C)NC(=O)c1ccc2c(c1)nc(CN(C)C(=O)Nc1ccc3c(c1)OCCO3)n2C | 616 s
O=C(Nc1ccc2nc(N3CCN(C4CCCCC4)CC3)cc(C(=O)O)c2c1)c1ccccc1Cl | 627 s
CNC(=O)C1CCCN(c2nc3ncn(CC(=O)NCC4CCCO4)c(=O)c3s2)C1 (configuration not stated) | 569 s
Cc1cccn2cc(-c3cccc(S(=O)(=O)N(C)C)c3)nc12 | 620 s
CCN(CC)S(=O)(=O)c1ccc2nc(N3CCN(Cc4ccc5c(c4)OCO5)CC3)cnc2c1 | 685 s
CCCN1CCN(C(=O)C2Cc3cc(S(=O)(=O)N(CC)CC)ccc3N2C(C)=O)CC1 (configuration not stated) | 610 s
CC(C)CC(=O)N1CC(c2nc(-c3cccnc3)no2)C2(CCOCC2)C1 (configuration not stated) | 706 s
CCOCCOC1CCN(C(=O)c2ccoc2)CC1 | 679 s
Cc1ccn2c(Nc3ccc4c(c3)OCCO4)c(-c3ccc(N4CCOCC4)cc3)nc2c1 | 680 s

Compound | RP-LC retention time
CCOC(=O)c1c(C)[nH]c(C(=O)N2CCC(C(C)C(=O)NCc3ccc(N(C)C)cc3)CC2)c1C (configuration not stated) | 635 s
CCOCCCNC(=O)N1CC(c2nc(C)no2)C2(CCOCC2)C1 (configuration not stated) | 616 s
Cc1ccc(-c2noc(Cn3cnc4c(cnn4-c4ccc(C(C)C)cc4)c3=O)n2)cc1 | 1300 s
COc1ccc2c(=O)c(Oc3ccc(C(=O)NC4CCS(=O)(=O)C4)cc3)coc2c1 (configuration not stated) | 687 s
CCc1nc2ccccc2c(=O)n1Cc1noc(-c2cc(OC)c(OC)c(OC)c2)n1 | 919 s
COC(=O)c1ccc(NC(=O)Cn2cccc(-c3nc(-c4ccc(Cl)cc4)no3)c2=O)cc1 | 934 s
COc1ccccc1C(=O)Nc1c(-c2ccc(F)cc2)nc2ccccn12 | 676 s
COc1ccc(N2CCN(C(=O)C3CCCN(c4ccncc4)C3)CC2)cc1 (configuration not stated) | 593 s
O=C(c1csc(S(=O)(=O)N2CCC(C(=O)N3CCc4ccccc4C3)CC2)c1)N1CCCC1 | 817 s
CN1CCN(CC2(O)CCC3(CCN(C(=O)c4ccsc4)CC3)CC2)CC1 | 570 s
CCOc1ccc2nc(Nc3ncc4c(n3)CC(c3ccccc3)CC4=O)nc(C)c2c1 (configuration not stated) | 831 s
CCOc1ccc(-n2c(CN3CCN(C(=O)NC4CCCC4)CC3)nc3cccnc32)cc1 | 636 s
CCN(CC)S(=O)(=O)c1ccc2c(c1)CC(C(=O)N1CCN(c3ccccc3)CC1)N2C(C)=O (configuration not stated) | 879 s
O=C(Cc1ccc(-c2ccc(OCCN3CCOCC3)cc2)cn1)NCc1ccccc1 | 621 s
Cc1cccc(-c2nnc(C)c(N3CCC4(CC3)OCCO4)n2)c1 | 673 s
COc1ccc(CNC(=O)Cn2c(=O)c(CCC(=O)NCC(C)C)nc3ccccc32)cc1 | 762 s
O=C(NCc1ccco1)C1CCN(c2ccc(Sc3ccccc3)nn2)CC1 | 1060 s
COC(=O)c1c(C)[nH]c(C(=O)N2CCC(CC(=O)NCCN3CCCCC3C)CC2)c1C (configuration not stated) | 592 s
CC(C)NC(=O)C1CCCN(c2nc3ncn(CC(=O)Nc4cc(F)cc(F)c4)c(=O)c3s2)C1 (configuration not stated) | 747 s
CCS(=O)(=O)N1CC(=O)N(c2ccc(C(C)C)cc2)C(C)(C(=O)NCc2ccc(F)cc2)C1 (configuration not stated) | 872 s
CSc1ccc(-c2nc3cc(C)ccn3c2Nc2ccc(Cl)cc2)cc1 | 840 s
Cc1nc(-c2csc(S(=O)(=O)N3CCC(C(=O)N4CCCCC4)CC3)c2)no1 | 818 s
COc1cccc(NC(=O)c2cn(CC3CCCO3)cc3c(=O)n(-c4ccccc4)nc2-3)c1 (configuration not stated) | 997 s
O=C1CC(c2noc(-c3cccc(F)c3)n2)CN1c1ccc(Cl)cc1 (configuration not stated) | 1080 s
O=C(c1cccnc1)N1CCN(c2ccccc2Cl)CC1 | 826 s
O=C(CCn1nnc2cc(-c3noc(COc4ccc(Cl)cc4)n3)ccc21)N1CCCC1 | 942 s

Results, then the molecule that gave them:

RP-LC retention time | Compound
996 s | COc1ccc(Cl)cc1NC(=O)CSc1nnc2c3cc(-c4ccc(F)cc4)nn3ccn12
889 s | COc1ccc(NC(=O)Cc2csc3nc(-c4cccc(Cl)c4)cn23)cc1
881 s | O=C(NCc1cnoc1-c1ccc(F)cc1)c1ccc2c(c1)OCO2
1340 s | Cc1sc2ncnc(N3CCCC(C)C3)c2c1C(=O)Nc1ccc(C(F)(F)F)cc1 (configuration not stated)
798 s | CCOC(=O)Nc1ccc2nc(N3CCCCCC3)sc2c1
808 s | COc1ccc(CNC(=O)Nc2ccccc2NC(=O)c2cccc(Cl)c2)cc1OC
835 s | CCN(CC)c1ccc(C(=O)O)cc1NC(=O)c1cccs1
657 s | COc1cc(NC(=O)NCCc2cn(C)c3ncccc23)cc(OC)c1
868 s | Cc1nnsc1C(=O)Nc1ccc([N+](=O)[O-])cc1C(F)(F)F
838 s | COc1ccc(-c2c(C)noc2NC(C)=O)cc1S(=O)(=O)NCC(C)c1ccccc1 (configuration not stated)
606 s | COc1ccc(-c2nnc3ccc(SCC(=O)Nc4nc(C)cs4)nn23)cc1OC
758 s | CCOC(=O)C(CC)SC1=NS(=O)(=O)c2cc(F)ccc2N1 (configuration not stated)
600 s | CCn1c(CC2CCN(C(=O)Nc3ccc(C)cc3)C2)nc2cccnc21 (configuration not stated)
830 s | CCc1noc(NC(C)=O)c1-c1ccc(C)c(S(=O)(=O)Nc2ccc(C)cc2)c1
872 s | Cc1nc(NC2CCCCC2)sc1C(=O)Nc1cccc(F)c1
580 s | COc1ccc(OC)c(NC(=O)N2CCc3nc[nH]c3C2)c1
1100 s | Cc1cc(NC(=O)N2CCCC(C)(C(=O)NCc3ccccc3C)C2)ccc1Br (configuration not stated)
1250 s | CCOc1ccc(-c2cc3c(=O)n(Cc4nc(-c5cccc(C(F)(F)F)c5)no4)ncn3n2)cc1

RP-LC retention time | Compound
819 s | O=C(c1cccs1)N1CCC(Cn2c(C(F)(F)F)nc3ccccc32)CC1
702 s | COCCc1nnc(NC(=O)c2ccc3c(c2)CCCC3)o1
846 s | COc1ccc(NS(=O)(=O)c2cc(-c3nnc(C(=O)N4CCCC4)o3)sc2C)c(OC)c1
768 s | CC(C(=O)Nc1ccccc1C(F)(F)F)n1cnc2nc3c(cc2c1=O)CCCC3 (configuration not stated)
946 s | Cc1c(C(=O)OCC(=O)Nc2cccc(Cl)c2)nnn1-c1ccccc1
1040 s | Cc1cc(NC(=O)Cn2c(=O)oc3ccccc32)n(-c2nc3c(F)cccc3s2)n1
638 s | COCc1nc2cccnc2n1C1CCN(C(=O)Nc2ccc(OC)cc2OC)CC1
1160 s | Cc1cc(C)cc(NC(=O)c2cc(C)n3nc(C)cc3n2)c1
760 s | COc1cc(=O)n2c(c1C(=O)Nc1cccc(Br)c1)CCCC2
612 s | CC1=C(C(=O)Nc2cccc(C(=O)N3CCN(c4ccccn4)CC3)c2)SCCO1
705 s | CCc1nnc(-c2ccc3ccn(CC(=O)Nc4cc(C)ccn4)c3c2)o1
756 s | CCN1C(=O)c2cccnc2Sc2cc(NC(=O)c3ccc(OC)nc3)ccc21
757 s | CCC(C)NC(=O)C1CCN(S(=O)(=O)c2ccc3c(c2)sc(=O)n3C)CC1 (configuration not stated)
780 s | CCOC(=O)COc1cc(-c2ccccc2)nc2ccc(NC(=O)C3CCC3)cc12
696 s | COc1ccc(-c2cc(N3CCC(NC(=O)c4ccc(F)cc4F)C3)n[nH]2)cc1 (configuration not stated)
762 s | Cc1cccc(CNC(=O)C2CCCN(C(=O)C3Sc4ccccc4NC3=O)C2)c1 (configuration not stated)
600 s | Cc1ccc(C(=O)N2CC(Cn3c(C)cnc3C3CCOCC3)C2)s1
